Data: patent US7662782B2, “Melanocortin 1 receptor selective compounds” (Action Pharma A/S, priority 1998, dated 2010)
pKi: −log10 of the molar value. Square brackets hold non-standard residues; d marks the D form. Ends that are not written are not given here. Peptide text beside a SMILES is read from it.

Tests used:
human MC5-receptor = target: T1, human MC5-receptor (Homo sapiens, UniProt P33032); assay: Competition for [125I]NDP-MSH binding to recombinant human MC5-receptor in COS cells; conditions: for pKi: [125I]NDP-MSH competition, transfected COS cells
T1 construct: expressed in transfected cells; host or cells: COS (COS-1) cells, transient, 48 h
T1 sequence (P33032 whole entry): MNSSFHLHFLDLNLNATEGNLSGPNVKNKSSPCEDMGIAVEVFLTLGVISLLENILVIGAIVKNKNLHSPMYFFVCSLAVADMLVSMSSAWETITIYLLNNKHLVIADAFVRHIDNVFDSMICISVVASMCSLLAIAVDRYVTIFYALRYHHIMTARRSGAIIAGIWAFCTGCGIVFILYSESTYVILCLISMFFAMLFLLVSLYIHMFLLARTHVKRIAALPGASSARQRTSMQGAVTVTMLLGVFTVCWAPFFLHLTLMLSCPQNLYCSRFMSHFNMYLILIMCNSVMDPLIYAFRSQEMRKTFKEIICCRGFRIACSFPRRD
Procedure: (§1) Expression of receptor clones. Human MC1- and MC5-receptor DNAs (Chhajlani and Wikberg 1992; Chhajlani et al., 1993), cloned into the expression vector pRc/CMV (InVitrogen Corp., USA), and human MC3- and human MC4-receptor DNAs (Gantz et al., 1993a & b), cloned into the expression vector pCMV/neo, were used. COS cells were grown and transfected with receptor clones as described (Schiöbth et al. 1995, 1996b). After transfection cells were cultivated for 48 h, detached from the Petri dishes, and used for radioligand binding as described (Schiöth et al. 1995, 1996b).
(§2) Binding studies. […] The competition data were analyzed by fitting it to the logistic function using non-linear regression analysis. The Ki-values were then calculated from the thus obtained IC50-values by using the Cheng and Prusoff equation, essentially as described by Schiöth et al. 1995, 1996b.

human MC1-receptor [1] = target: T2, human MC1-receptor (Homo sapiens, UniProt Q01726); assay: Competition for [125I]NDP-MSH binding to recombinant human MC1-receptor in COS cells; set-up: expressed in transfected cells; host or cells: COS (COS-1) cells, transient, 48 h; conditions: [125I]NDP-MSH competition, transfected COS cells
T2 sequence (Q01726 whole entry): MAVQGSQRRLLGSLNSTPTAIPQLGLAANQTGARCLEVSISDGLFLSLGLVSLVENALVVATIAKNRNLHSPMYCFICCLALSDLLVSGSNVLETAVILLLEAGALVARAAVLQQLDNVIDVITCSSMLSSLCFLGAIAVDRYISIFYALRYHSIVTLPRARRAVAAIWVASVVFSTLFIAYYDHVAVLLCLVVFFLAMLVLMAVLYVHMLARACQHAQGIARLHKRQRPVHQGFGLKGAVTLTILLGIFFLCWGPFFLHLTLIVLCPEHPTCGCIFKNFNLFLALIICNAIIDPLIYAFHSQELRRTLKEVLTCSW
Procedure: as §1, §2

human MC4-receptor = target: T3, human MC4-receptor (Homo sapiens, UniProt P32245); assay: Competition for [125I]NDP-MSH binding to recombinant human MC4-receptor in COS cells; conditions: for pKi: [125I]NDP-MSH competition, transfected COS cells
T3 construct: expressed in transfected cells; host or cells: COS (COS-1) cells, transient, 48 h
T3 sequence (P32245 whole entry): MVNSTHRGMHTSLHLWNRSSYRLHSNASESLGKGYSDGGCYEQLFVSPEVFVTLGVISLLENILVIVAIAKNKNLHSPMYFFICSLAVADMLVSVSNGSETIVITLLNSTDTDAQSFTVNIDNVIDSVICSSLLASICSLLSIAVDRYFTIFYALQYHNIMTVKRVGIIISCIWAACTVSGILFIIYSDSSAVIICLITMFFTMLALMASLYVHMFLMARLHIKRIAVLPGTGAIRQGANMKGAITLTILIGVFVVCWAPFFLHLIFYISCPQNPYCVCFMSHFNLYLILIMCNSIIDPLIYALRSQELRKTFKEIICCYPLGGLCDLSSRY
Procedure: as §1, §2

human MC1-receptor [2] = target: T2, human MC1-receptor; assay: Stimulation of cAMP formation in B16G4F cells stably expressing human MC1-receptors; type: cell-based; set-up: expressed in transfected cells; conditions: for Fold stimulation of cAMP: vs untreated control cells, mean ± SD of 3 experiments
Procedure: Human MC1-receptors had been cloned earlier into pZeoSV (Invitrogen) (Szardenings et al., 1997). The resulting vectors were used for transformation of the amelanotic mouse melanoma cell line B16G4F that lacks the mouse MC1-receptors (Solca et al., 1993) using liposomes (Campbell, 1995) as described previously (Schiöth et al., 1997b). Cells were cultivated in Dulbecco's modified Eagle's medium with 10% fetal calf serum at 7% CO2 for 24 hours and seeded on large plates in the same medium containing 300 μg/ml Zeocin. The medium was exchanged every 4-5 days until cell foci appeared. Single foci were isolated and grown under antibiotic selection.
For cAMP measurements the cells were detached from 60-80% confluent adherent cultures using Hank's balanced salts containing 0.5 mM EDTA and incubated for 30-60 min at 37° C. in ordinary growth medium containing 0.5 mM of the phosphodiesterase inhibitor 3-isobutyl-1-methyl-xanthine (IBMX). 20 μl aliquots of appropriate dilutions of test compounds in growth medium were prepared in 96 well microtitre plates and placed in a water bath at 37° C. For the stimulation about 1.5×10^5 cells in 180 μl were quickly added to each well to obtain immediate mixing. After 20 min 20 μl of 4.4 M perchloric acid were added, mixed, neutralized after a few minutes by addition of 20 μl base (5 M KOH, 1 M Tris) and centrifuged.
20 μl of acid treated supernatant obtained above were mixed with 50 μl buffer (100 mM Tris-Cl, 250 mM NaCl, 10 mM EDTA, 0.1% mercaptoethanol, 0.5 mM IBMX, pH=7.4) containing 0.01 μCi [^3H]cAMP (Amersham, 1.04 TBq/mmol, 1 μCi/μl, product no.: TRK304). 200 μl of the same buffer containing a 1:16 diluted porcine adrenal gland bark extract (prepared as described by Nordstedt and Fredholm, 1990) were added and the microtitre plates were incubated for at least 2 hours at 4° C. A standard curve was prepared in the same manner with dilutions of cAMP covering the range 2 μM -0.5 nM.
After completion of incubation the solutions were filtered over GF-B glassfibre filters (Whatman) and washed briefly with ca. 2 ml ice-cold washing buffer (50 mM Tris-Cl, pH=7.4). Radioactivity on the filters was measured after-addition of scintillation liquid. Stimulation experiments were determined in quadruplicates and standard curves in duplicates.

human MC3-receptor = target: T4, human MC3-receptor (Homo sapiens, UniProt P41968); assay: Competition for [125I]NDP-MSH binding to recombinant human MC3-receptor in COS cells; conditions: for pKi: [125I]NDP-MSH competition, transfected COS cells
T4 construct: expressed in transfected cells; host or cells: COS (COS-1) cells, transient, 48 h
T4 sequence (P41968 whole entry): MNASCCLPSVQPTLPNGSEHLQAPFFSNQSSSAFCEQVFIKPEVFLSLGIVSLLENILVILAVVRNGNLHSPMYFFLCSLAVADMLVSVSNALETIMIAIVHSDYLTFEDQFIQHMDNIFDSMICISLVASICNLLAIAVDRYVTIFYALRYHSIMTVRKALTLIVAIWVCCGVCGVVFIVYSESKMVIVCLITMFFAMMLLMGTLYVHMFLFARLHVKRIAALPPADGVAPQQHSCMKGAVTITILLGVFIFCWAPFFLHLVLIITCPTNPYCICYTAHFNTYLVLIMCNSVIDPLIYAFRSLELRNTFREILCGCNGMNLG
Procedure: as §1, §2

mouse B16 melanoma cells = assay: Stimulation of cAMP-formation in mouse B16 melanoma cells; type: cell-based; conditions: FIG. 3; both peptides at similar potencies and efficacies
Procedure: B16 mouse melanoma cells (B16-F1; CRL-6323, American Type Culture Collection, 12301 Parklawn Drive, Rockville, Md., 20852), were cultured in Dulbecco's modified Eagle medium (DMEM; Gibco BRA Gaithersburg, USA, cat no. 041-01966H) supplemented with 10% heat-inactivated fetal bovine serum, 100 IU penicillin/mL and 100 μg streptomycin/mL at 37° C. in a humidified atmosphere of 95% air and 5% CO2. Cells grown in monolayers were detached from 60-80% confluent adherent cultures using Hank's balanced salts containing 0.5 mM EDTA and collected by low speed centrifugation (700×g).
The cells were incubated for 30 min at 37° C. in DMEM containing 0.5 mM of the phosphodiesterase inhibitor 3-isobutyl-1-methyl-xanthine (IBMX). 20 μL aliquots of appropriate dilutions of test compounds in growth medium were prepared in 96 well microtitre plates The plates were then placed in a water bath at 37° C. and about 1.5×10^5 cells in 180 μL were quickly added to each well to obtain immediate mixing. […]
After completion of the incubations the solutions were rapidly filtered onto GF-B glassfibre filters (Whatman), followed by rapid washing of filters with 2 ml ice-cold washing buffer (50 mM Tris-Cl, pH 7.4). […] Radioactivity was counted using a β-counter. Cell experiments were determined in quadruplicates and standard curves in duplicates.

[3] = test system: human microvascular endothelial cells (HMEC-1 cells); assay: TNF α induced adhesion molecule expression in HMEC-1 cells; type: cell-based; conditions: TNF α 10 ng/mL
Procedure: In further tests the MS05 or MS09 was administered to human microvascular endothelial cells (HMEC-1 cells; Department of Health & Human Services, Centres for Disease Control and Prevention, Atlanta, Ga. 30333, USA) in vitro. […] In this context by ICAM-1 is intended intercellular adhesion molecule type 1, by VCAM is intended vascular adhesion molecule, and by E-Selectin is intended endothelial selectin (Sluiter et al, J. Cardiovasc. Pharmacol. 1993, 22 Suppl 4: S37-44, Elangbam et al., Vet. Pathol. 1997 Jan. 34(1): 61-73).

[4] = test system: mouse RAW 264.7 macrophage cells; assay: Stimulation of cAMP-formation in mouse RAW 264.7 macrophage cells; type: cell-based; conditions: FIG. 5; both peptides at similar potencies and efficacies
Procedure: RAW 264.7 cells were grown as described in Example 6. cAMP was determined essentially as described in Example 5.

BALB/C mice = assay: DNFB contact hypersensitivity in BALB/C mice (paw oedema, blood cell counts); type: in vivo, mouse; conditions: for inhibition of paw oedema: daily, vs DNFB animals not given MS05
Procedure: Marked positive treatment effects were found upon administration of MS05 to BALB/C mice. Animals were sensitized by injection of 2,4-dinitrofluorobenzene (DNFB). First 30 μL of 0.5% DNFB was administered to the shaved abdomen of the mice and after 4 days 10 μL of 0.3% DNFB was challenged to one paw, another paw being unchallenged and serving as a control. MS05 was administered, using a solution of MS05 in 0.9% saline, intraperitonally two hours before sensitization, and then the same dose was given intra-peritonally for four consecutive days, each dose of MS05 amounting to 0.05, 0.25, 0.37, 0.5 and 0.75 mg/kg. […] Therefore the compound of the invention is in a further sense immunomodulatory.

[5] = test system: mouse RAW 264.7 macrophage cells; assay: Inhibition of nitric oxide production in LPS/interferon gamma stimulated RAW 264.7 cells; type: cell-based; conditions: FIG. 6; 100 ng/mL LPS + 5 units/mL interferon gamma, 16 h; potencies and efficacies similar to α-MSH
Procedure: RAW 264.7 cells (TIB-71), obtained from American Type Culture Collection, 12301 Parklawn Drive, Rockville, Md., 20852, USA, and cultured in Dulbecco's modified Eagle medium (Gibco, BRL) supplemented with 10% heat-inactivated fetal bovine serum, 100 IU penicillin/ml and 100 μg streptomycin/ml at 37° C. in a humidified atmosphere of 95% air and 5% CO2. Cells grown in monolayers were detached from the culture flasks and collected by low speed centrifugation (700×g). […]
Nitric oxide was measured by monitoring the nitrite production essentially using the method of Wishnok et al. (Methods in Enzymology, 1996, 268, 130-151). In brief 50 μL of culture medium was mixed with 50 μL Griess reagent (i.e. a 1:1 mixture of 0.1% N-naphthylethylenediamine dihydrochloride and 1% sulfanilamide in 5% (v/v) phosphoric acid) and after 10 min the absorption was measured at 540 nm. The nitrite concentrations were calculated from a standard curve constructed, by instead of culture medium, adding 50 μL of between 3 to 100 μM of NaNO2 to the assays.

[6] = intraperitoneal, best effect at 0.5 mg/kg daily

## CC[C@H](C)[C@H](NC(=O)[C@H](CO)NC(=O)[C@@H](N)CO)C(=O)N[C@H](C(=O)N[C@@H](CO)C(=O)N[C@@H](Cc1c[nH]cn1)C(=O)N[C@H](Cc1ccccc1)C(=O)N[C@@H](CCCNC(=N)N)C(=O)N[C@@H](Cc1c[nH]c2ccccc12)C(=O)NCC(=O)N[C@@H](CCCCN)C(=O)N1CCC[C@H]1C(=O)N[C@H](C(N)=O)C(C)C)[C@@H](C)CC [MS09, Ser-Ser-Ile-Ile-Ser-His-dPhe-Arg-Trp-Gly-Lys-Pro-Val-NH2] (H-SSIISH[dF]RWGKPV-NH2)
Human MC5-receptor
  pKi: 6.92
Human MC1-receptor [1]
  pKi: 9.70
Human MC4-receptor
  pKi: 7.40
Human MC1-receptor [2]; 10 nM compound
  % of 10 nM α-MSH (cAMP stimulation): 89%
Human MC3-receptor
  pKi: 8.15

## SSIISHFRWGKPV-NH2 [MS05, L-seryl-L-seryl-L-Isoleucyl-L-isoleucyl-L-seryl -L-histidyl-L-phenylalanyl-L-arginyl-L-tryptophanyl-glycyl-L-lysyl-L-prolyl-L-valinamide]
Mouse B16 melanoma cells
  effect on cAMP levels in mouse B16 melanoma cells: marked increase in cAMP
Human MC5-receptor
  pKi: < 4.30
Human MC5-receptor; ratio of Ki values
  fold lower affinity for the MC5 receptor than for the MC1-receptor: more than 65000 fold
Human MC1-receptor [1]
  pKi: 9.12
Human MC4-receptor
  pKi: < 4.30
Human MC4-receptor; ratio of Ki values
  fold lower affinity for the MC4 receptor than for the MC1-receptor: more than 65000 fold
[3]
  TNF α upregulated expression of mRNA for ICAM-1, VCAM and E-Selectin: inhibition of the upregulated expression of mRNA
  TNF α upregulation of the ICAM-1, VCAM and E-Selectin proteins: inhibition of the upregulation
[4]
  effect on cAMP levels in mouse RAW 264.7 cells: marked increase in cAMP
Human MC1-receptor [2]; 10 nM compound
  % of 10 nM α-MSH (cAMP stimulation): 69%
  Fold stimulation of cAMP: 4.6 ± 0.3 fold
Human MC1-receptor [2]; 1 μM compound
  Fold stimulation of cAMP: 6.7 ± 0.3 fold
BALB/C mice; 0.05 mg/kg intraperitoneal
  inhibition of paw oedema: 3%
BALB/C mice; 0.25 mg/kg intraperitoneal
  inhibition of paw oedema: 5%
BALB/C mice; 0.37 mg/kg intraperitoneal
  inhibition of paw oedema: 12%
BALB/C mice; 0.5 mg/kg intraperitoneal
  inhibition of paw oedema: 39%
BALB/C mice; 0.75 mg/kg intraperitoneal
  inhibition of paw oedema: 10%
BALB/C mice; intraperitoneal
  DNFB induced increase in blood platelet counts: returned towards the normal
  DNFB induced increase in count of lymphocytes/monocytes in the blood: essentially returned to normal levels
BALB/C mice; [6]
  DNFB induced increase in granulocyte counts of the blood: essentially normalized
  DNFB induced increase in total white cell blood counts: essentially normalized
[5]
  inhibition of NO-production: strong dose dependent inhibition
Human MC3-receptor
  pKi: 5.86
Human MC3-receptor; ratio of Ki values
  fold lower affinity for the MC3 receptor than for the MC1-receptor: 1800 fold
